# Experimental data: US8623912B2, “Fostriecin derivatives and the pharmaceutical uses thereof” (priority 2008, dated 2014)
# Like-named read-outs stand apart in the source and are kept apart here.
# Tests used:
# [1] = target: protein phophatase PP2A (Homo sapiens, UniProt P67775); conditions: cited from earlier work
# [2] = target: T1, PP4 (Homo sapiens, UniProt P60510); conditions: cited from earlier work
# T1 sequence (P60510 1-307): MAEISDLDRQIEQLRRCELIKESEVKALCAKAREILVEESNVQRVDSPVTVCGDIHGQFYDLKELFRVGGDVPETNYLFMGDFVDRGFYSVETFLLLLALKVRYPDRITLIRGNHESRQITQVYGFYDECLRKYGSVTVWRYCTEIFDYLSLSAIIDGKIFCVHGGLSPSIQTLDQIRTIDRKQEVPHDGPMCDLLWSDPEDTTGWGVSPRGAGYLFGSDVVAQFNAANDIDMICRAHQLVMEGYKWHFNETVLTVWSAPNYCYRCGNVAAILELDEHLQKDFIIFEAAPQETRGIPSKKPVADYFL
# [3] = tested on: HL60 (human leukemia); experiment: Celltiter 96 cell proliferation assay (modified MTT method), HL60; type: cell-based; conditions: read-out: IC50 HL60 (human leukemia)
# Protocol: (§1) The anti-tumor activities of the compounds of thiophosphorylated FST (A) and methyl phosphorylated FST (B) of the present invention to various tumor cell lines of HL-60, CCRD-CEM and NCI-H460 were determined by Celltiter 96 cell proliferation assay kit (modified MTT method) manufactured by Promega company. Onto a 96-well plate, total volume 50 ul/well was added with about 5-7.5×10^3 cells/well, and cultured for 24 hours, followed by addition of 50 ul of the compounds (0.001 nM˜1000 nM) to each well, and cultured for 72 hours. Subsequently, 15 ul of MTT staining solution was added to the well, temperature was kept for 4 hours, the thus formed precipitate was then dissolved with 100 ul lysis buffe/stop solution. After 1 hour, the content in the well was mixed homogeneously with a shaker, and the abosorption value (OD 570 nm) of each well was measured by enzyme-labeled instrument (Molecular Devices). The data was analyzed with Kaleida Graph Program, and the IC50 value (the concentration of the compound at which the growth of 50% of the cell is inhibited) was calculated.
# [4] = tested on: CCRF-CEM (human leukemia); experiment: Celltiter 96 cell proliferation assay (modified MTT method), CCRF-CEM; type: cell-based; conditions: read-out: IC50 CCRF-CEM (human leukemia)
# Protocol: as §1
# [5] = tested on: NCI-H460 (human Lung Cancer); experiment: Celltiter 96 cell proliferation assay (modified MTT method), NCI-H460; type: cell-based; conditions: read-out: IC50 NCI-H460 (human Lung Cancer)
# Protocol: as §1
# [6] = tested on: alkaline phosphatase; type: in vitro ADME; conditions: FIG. 2; for stability under the action of alkaline phosphatase: 75 mM Tris Buffer pH 8.3, 5 mM MgCl2, 37° C., 2-5 hours; for formation of dephosphorylated FST under alkaline phosphatase: conditions of Example 1
# Protocol: Reaction condidtions: FST was dissolved in a solution of 75 mM Tris Buffer (pH 8.3) and 5 mM MgCl2 to obtain a 20 mM FST solution, to each milligram of Fostriecin was added 1 to 1.5 units of alkaline phosphatase, enzymolysis was performed at 37° C. for 2-5 hours.
# Thiophosphorylated FST(A) and methyl phosphorylated FST(B) were subjected to hydrolysis of alkaline phosphatase under the reaction condidtions as described in Example 1.
# [7] = HL-60, 72 hours culture with compound, MTT, OD 570 nm
# [8] = 72 hours culture with compound, MTT, OD 570 nm
# [9] = NCI-H460, 72 hours culture with compound, MTT, OD 570 nm
# protein phophatase PP2A, sequence (P67775 whole entry): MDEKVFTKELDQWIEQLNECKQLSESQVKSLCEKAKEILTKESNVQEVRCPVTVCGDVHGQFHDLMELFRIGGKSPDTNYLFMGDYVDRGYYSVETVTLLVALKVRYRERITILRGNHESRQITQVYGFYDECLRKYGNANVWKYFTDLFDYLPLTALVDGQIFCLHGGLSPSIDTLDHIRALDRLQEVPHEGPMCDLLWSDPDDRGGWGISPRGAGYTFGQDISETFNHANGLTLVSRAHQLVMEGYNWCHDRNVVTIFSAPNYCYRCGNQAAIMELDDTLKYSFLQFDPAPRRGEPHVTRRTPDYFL
SMILES,IC50 [1],IC50 [2],"IC50 [3, 7]","IC50 [4, 8]","IC50 [5, 9]",stability under the action of alkaline phosphatase [6],formation of dephosphorylated FST under alkaline phosphatase [6],"IC50 ([3]; HL-60, 72 h)",IC50 ([4]; 72 h),"IC50 ([5]; NCI-H460, 72 h)"
"CC(O)(C=CC1CC=CC(=O)O1)C(CC(O)C=CC=CC=CCO)OP(=O)(O)O (stereo not drawn) [FST, Fostriecin]",0.0015 µM,0.003 µM,12 µM,10 µM,14.5 µM,–,–,–,–,–
C[C@@](O)(/C=C/[C@H]1CC=CC(=O)O1)C(C[C@@H](O)\C=C/C=C\C=C\CO)OCP(=O)(O)O (stereo partly drawn) [B],–,–,12.5 µM,14 µM,16.3 µM,relatively stable,no dephosphorylated FST was formed,–,–,–
C[C@@](O)(/C=C/C1CC=CC(=O)O1)C(C[C@@H](O)\C=C/C=C\C=C\CO)OP(O)(O)=S (stereo partly drawn) [A],–,–,–,–,–,relatively stable,no dephosphorylated FST was formed,10.5 µM,9.6 µM,13.2 µM
